# In article PMC9239047 (mBio, 2022):
# Positions of bridges follow the written chain, without caps; N, C: chain ends. Residues, ends and D or L forms follow the SMILES beside them.
# Columns and labels:
# MRSA agr-II = MRSA agr-II (Staphylococcus aureus, UniProt O33587); experiment: MRSA agr-II P3::YFP fluorescent reporter assay; format: cell-based
# MRSA strain LAC = experiment: Murine epicutaneous infection; format: in vivo, C57BL/6J mice
# S. hominis agr-II = S. hominis agr-II P3::sGFP reporter assay (AH4553 + pCM41); format: cell-based, Staphylococcus hominis; details: for S. hominis agr-II reporter growth (OD600): increasing concentrations of synthetic AIP; for effect on S. hominis agr-II fluorescent signal (in words): increasing doses of synthetic AIP, early signal
# MRSA agr-IV = MRSA agr-IV (Staphylococcus aureus, UniProt Q309Z2); experiment: MRSA agr-IV P3::YFP fluorescent reporter assay; format: cell-based; details: for inhibition of MRSA agr-IV by synthetic AIP (in words): synthetic AIP dose response, 24 h fluorescence
# MRSA agr-IV, sequence (Q309Z2 entry or part of it): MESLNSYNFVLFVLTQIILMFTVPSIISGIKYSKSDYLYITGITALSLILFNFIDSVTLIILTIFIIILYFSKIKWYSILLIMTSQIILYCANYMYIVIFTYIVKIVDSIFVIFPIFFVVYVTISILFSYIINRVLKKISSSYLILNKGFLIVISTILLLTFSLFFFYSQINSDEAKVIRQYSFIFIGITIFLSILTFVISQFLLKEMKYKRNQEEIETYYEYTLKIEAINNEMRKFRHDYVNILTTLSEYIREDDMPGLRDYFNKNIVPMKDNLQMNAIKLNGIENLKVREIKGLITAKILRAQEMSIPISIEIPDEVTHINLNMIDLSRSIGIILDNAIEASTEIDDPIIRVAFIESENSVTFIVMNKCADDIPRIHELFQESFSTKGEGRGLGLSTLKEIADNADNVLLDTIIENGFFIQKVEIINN
# S. hominis agr-I = S. hominis agr-I P3::sGFP reporter assay (AH5009 + pCM41); format: cell-based, Staphylococcus hominis; details: for S. hominis agr-I reporter growth (OD600): increasing concentrations of synthetic AIP; for effect on S. hominis agr-I fluorescent signal (in words): increasing doses of synthetic AIP, early signal
# USA300 MRSA (strain LAC) = experiment: Murine dermonecrosis model; format: in vivo, BALB/c mice; details: 10 or 50 μg synthetic AIP-II in DMSO mixed with 1 × 10^8 CFU MRSA, intradermal; vs vehicle; n = 10 per group; dose dependent
# MRSA agr-III = MRSA agr-III (Staphylococcus aureus, UniProt O33590); experiment: MRSA agr-III P3::YFP fluorescent reporter assay; format: cell-based
# MRSA agr-III, sequence (O33590 entry or part of it): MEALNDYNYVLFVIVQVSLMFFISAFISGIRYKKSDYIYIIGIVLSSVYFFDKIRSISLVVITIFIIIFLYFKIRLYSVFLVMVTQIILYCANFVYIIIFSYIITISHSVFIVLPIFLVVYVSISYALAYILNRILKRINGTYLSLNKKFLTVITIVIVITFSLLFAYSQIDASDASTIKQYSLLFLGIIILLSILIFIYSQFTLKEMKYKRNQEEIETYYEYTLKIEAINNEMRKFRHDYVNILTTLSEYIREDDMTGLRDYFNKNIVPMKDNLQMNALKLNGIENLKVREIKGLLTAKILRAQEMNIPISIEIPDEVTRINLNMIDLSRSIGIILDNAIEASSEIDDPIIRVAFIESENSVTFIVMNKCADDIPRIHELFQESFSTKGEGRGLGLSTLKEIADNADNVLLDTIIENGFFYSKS
# MRSA agr-I = MRSA agr-I (Staphylococcus aureus, UniProt O07911); experiment: MRSA agr-I P3::YFP fluorescent reporter assay; format: cell-based
# MRSA agr-I, sequence (O07911 entry or part of it): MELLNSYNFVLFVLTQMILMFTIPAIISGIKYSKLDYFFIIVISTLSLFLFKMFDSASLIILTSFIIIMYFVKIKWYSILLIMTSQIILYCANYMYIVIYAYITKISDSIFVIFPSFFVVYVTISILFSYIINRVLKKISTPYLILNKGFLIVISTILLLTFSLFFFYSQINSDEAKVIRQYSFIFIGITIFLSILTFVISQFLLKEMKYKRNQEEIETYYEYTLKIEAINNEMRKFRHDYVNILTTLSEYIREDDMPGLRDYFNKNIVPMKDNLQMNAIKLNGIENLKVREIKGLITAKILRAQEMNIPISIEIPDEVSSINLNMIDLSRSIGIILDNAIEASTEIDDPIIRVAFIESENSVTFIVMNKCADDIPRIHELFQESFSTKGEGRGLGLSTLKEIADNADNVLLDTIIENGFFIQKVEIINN
# MRSA = details: mouse model; cited from earlier work
# S. epidermidis agr-I = S. epidermidis agr-I (Staphylococcus epidermidis, UniProt O86861); experiment: S. epidermidis agr-I P3::sGFP reporter assay; format: cell-based
# S. epidermidis agr-I, sequence (O86861 entry or part of it): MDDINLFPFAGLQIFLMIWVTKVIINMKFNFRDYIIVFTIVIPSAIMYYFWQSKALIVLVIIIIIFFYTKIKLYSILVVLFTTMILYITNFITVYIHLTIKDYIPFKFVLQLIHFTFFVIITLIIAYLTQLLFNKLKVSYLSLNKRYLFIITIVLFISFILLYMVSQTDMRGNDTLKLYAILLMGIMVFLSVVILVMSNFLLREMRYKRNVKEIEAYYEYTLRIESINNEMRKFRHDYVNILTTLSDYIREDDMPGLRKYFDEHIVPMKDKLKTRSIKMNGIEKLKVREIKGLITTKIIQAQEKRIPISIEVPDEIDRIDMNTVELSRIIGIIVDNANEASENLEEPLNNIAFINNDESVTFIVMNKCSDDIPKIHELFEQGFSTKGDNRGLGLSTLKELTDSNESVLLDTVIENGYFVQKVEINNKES
# [1] = test system: S. hominis AH5009 AgrA-regulated genes; experiment: RNA-seq of apicidin-treated S. hominis agr-I; format: cell-based, Staphylococcus hominis
# [2] = test system: S. hominis AH5009 PSM-β1 production; experiment: Mass spectrometric detection of PSM-β1 in conditioned medium; format: cell-based, Staphylococcus hominis; details: 100 μM apicidin or DMSO, 8 h; LC-MS; triplicate injections of biological triplicates
# [3] = cognate AIP, fluorescence at 8 h
# [4] = 100 μM apicidin vs DMSO, 4-fold cutoff, false discovery rate P value ≤0.05
# [5] = RNA-seq, S. hominis AH5009, 100 μM apicidin vs DMSO, 8 h, biological triplicate
# [6] = RNA-seq, S. hominis AH5009, 100 μM apicidin vs DMSO, 8 h, outside 4-fold cutoff
# [7] = 100 μM apicidin vs DMSO, over 24 h
# MRSA agr-II, sequence (O33587 entry or part of it): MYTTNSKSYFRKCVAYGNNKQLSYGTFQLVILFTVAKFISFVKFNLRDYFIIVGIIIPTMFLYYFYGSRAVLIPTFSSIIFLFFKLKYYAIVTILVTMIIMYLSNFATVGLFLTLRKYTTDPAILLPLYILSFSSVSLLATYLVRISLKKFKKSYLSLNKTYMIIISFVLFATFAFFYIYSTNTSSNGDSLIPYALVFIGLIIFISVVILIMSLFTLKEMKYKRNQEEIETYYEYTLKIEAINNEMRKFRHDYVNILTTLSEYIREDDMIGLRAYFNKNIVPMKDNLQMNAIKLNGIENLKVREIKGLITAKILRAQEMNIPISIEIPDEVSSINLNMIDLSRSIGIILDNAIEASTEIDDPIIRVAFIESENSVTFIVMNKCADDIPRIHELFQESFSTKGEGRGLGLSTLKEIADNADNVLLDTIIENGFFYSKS
structure (smiles),measurement,setting,value
C[C@@H]1NC(=O)[C@@H](NC(=O)[C@@H]2CCCN2C(=O)[C@H](CO)NC(=O)[C@H](Cc2ccc(O)cc2)NC(=O)[C@@H](N)CO)CSC(=O)[C@H](Cc2ccccc2)NC(=O)[C@H](Cc2ccc(O)cc2)NC(=O)[C@H]([C@@H](C)O)NC1=O [AIP-II] (H-SYSPCATYF; thioester 5-C; N-terminus assumed),IC50,MRSA agr-II,2110 nM
same,barrier function by transepithelial water loss (TEWL),"MRSA strain LAC; 10 or 50 μg synthetic AIP-II with 1 × 10^8 CFU MRSA on gauze, 72 h topical, vs vehicle, n = 10 per group",retained more of their barrier function
same,total CFU burden in epicutaneous lesions,"MRSA strain LAC; 10 or 50 μg synthetic AIP-II, 72 h postinfection",no differences in CFU between groups
same,gross morphology of the skin,"MRSA strain LAC; synthetic AIP-II-treated vs vehicle control mice, 72 hpi","less redness, scaling, and erythema"
same,concentration of synthetic AIP optimal to boost S. hominis agr-II fluorescent signal,S. hominis agr-II; [3],12.5 nM
same,S. hominis agr-II reporter growth (OD600),S. hominis agr-II,no effect on growth
same,IC50,MRSA agr-IV,1130 nM
same,inhibition of MRSA agr-IV by synthetic AIP (in words),MRSA agr-IV,poorly inhibited
same,S. hominis agr-I reporter growth (OD600),S. hominis agr-I,no effect on reporter growth
same,IC50,"S. hominis agr-I; read-out: IC50, inhibition of S. hominis agr-I signaling, noncognate synthetic AIP dose response, relative fluorescence at 8 h, three independent experiments pooled",9 nM
same,dermonecrotic lesion size,USA300 MRSA (strain LAC),significantly smaller lesions
same,IC50,MRSA agr-III,3 nM
same,IC50,MRSA agr-I,15 nM
CC[C@H](C)[C@H](NC(=O)[C@@H](N)[C@@H](C)O)C(=O)N[C@@H](CC(N)=O)C(=O)N[C@H](C(=O)N[C@H]1CSC(=O)[C@H](Cc2ccccc2)NC(=O)[C@H](Cc2ccc(O)cc2)NC(=O)CNC(=O)CNC1=O)[C@@H](C)O [AIP-IV] (H-TINTCGGYF; thioester 5-C; N-terminus assumed),IC50,MRSA agr-II,140 nM
same,S. hominis agr-II reporter growth (OD600),S. hominis agr-II,did not impact the growth
same,effect on S. hominis agr-II fluorescent signal (in words),S. hominis agr-II,negligible effects on agr-II
same,inhibition of MRSA agr-IV by synthetic AIP (in words),MRSA agr-IV,not inhibited
same,S. hominis agr-I reporter growth (OD600),S. hominis agr-I,did not impact the growth
same,effect on S. hominis agr-I fluorescent signal (in words),S. hominis agr-I,slightly boosted early agr-I signaling
same,IC50,MRSA agr-III,37 nM
same,IC50,MRSA agr-I,128 nM
CC(C)[C@H](NC(=O)[C@H](CC(N)=O)NC(=O)[C@H](Cc1ccc(O)cc1)NC(=O)[C@@H](N)CO)C(=O)N[C@H]1CSC(=O)[C@H](Cc2ccccc2)NC(=O)[C@H](Cc2ccc(O)cc2)NC(=O)CNC(=O)CNC1=O [AIP-I] (H-SYNVCGGYF; thioester 5-C),MRSA-associated AD symptoms,MRSA,effectively mitigates MRSA-associated AD symptoms
same,S. hominis agr-II reporter growth (OD600),S. hominis agr-II,no impact on reporter growth
same,IC50,"S. hominis agr-II; read-out: IC50, inhibition of S. hominis agr-II fluorescent signaling, noncognate synthetic AIP dose response, relative fluorescence at 8 h, three independent experiments pooled",7 nM
same,inhibition of MRSA agr-IV by synthetic AIP (in words),MRSA agr-IV,poorly inhibited
same,concentration of synthetic AIP that significantly boosted S. hominis agr-I fluorescent signal,S. hominis agr-I; [3],≥ 25 nM
same,S. hominis agr-I reporter growth (OD600),S. hominis agr-I,no effect on growth
same,inhibition of S. epidermidis agr-I (in words),S. epidermidis agr-I; synthetic AIP dose response,poor inhibitor
same,S. epidermidis agr-I early fluorescent signal,"S. epidermidis agr-I; synthetic AIP, first 8 h of incubation",boosted the fluorescent signal
CC(C)[C@H](NC(=O)[C@@H](NC(=O)[C@H](CCC(N)=O)NC(=O)[C@@H](N)CO)[C@@H](C)O)C(=O)N[C@H]1CSC(=O)[C@H](Cc2ccccc2)NC(=O)[C@H](Cc2ccc(O)cc2)NC(=O)CNC(=O)[C@H](CO)NC1=O [AIP-V] (H-SQTVCSGYF; thioester 5-C; N-terminus assumed),IC50,MRSA agr-II,59 nM
same,S. hominis agr-II reporter growth (OD600),S. hominis agr-II,did not impact the growth
same,effect on S. hominis agr-II fluorescent signal (in words),S. hominis agr-II,modestly inhibited agr-II
same,IC50,MRSA agr-IV,3810 nM
same,inhibition of MRSA agr-IV by synthetic AIP (in words),MRSA agr-IV,poorly inhibited
same,S. hominis agr-I reporter growth (OD600),S. hominis agr-I,did not impact the growth
same,effect on S. hominis agr-I fluorescent signal (in words),S. hominis agr-I,weak to negligible effects on agr-I
same,IC50,MRSA agr-III,4 nM
same,IC50,MRSA agr-I,43 nM
CCC(=O)CCCCC[C@@H]1NC(=O)[C@H]2CCCCN2C(=O)[C@H]([C@@H](C)CC)NC(=O)[C@H](Cc2cn(OC)c3ccccc23)NC1=O [apicidin],number of genes downregulated,[1]; [4],40 genes
same,number of genes significantly upregulated,[1]; [4],7 genes
same,"Fold change, MOV58_00040 serine--tRNA ligase",[1]; [5],-5.87 fold
same,"Fold change, MOV58_00405 arsenate reductase",[1]; [5],-5.32 fold
same,"Fold change, MOV58_00410 anion permease",[1]; [5],-4.39 fold
same,"Fold change, MOV58_00550 (S)-acetoin forming diacetyl reductase",[1]; [5],-7.89 fold
same,"Fold change, MOV58_01010 acetoin reductase/dehydrogenase",[1]; [5],-5.45 fold
same,"Fold change, MOV58_01015 yxel choloylglycine hydrolase family protein",[1]; [5],-4.94 fold
same,"Fold change, MOV58_01105 excinuclease ABC subunit UvrA",[1]; [5],8.12 fold
same,"Fold change, MOV58_01110 arylamine N-acetyltransferase",[1]; [5],9.09 fold
same,"Fold change, MOV58_01115 ABC2 transporter permease",[1]; [5],9.05 fold
same,"Fold change, MOV58_01120 ABC transporter ATP binding protein btuD",[1]; [5],10.45 fold
same,"Fold change, MOV58_01125 DUF3169 family protein",[1]; [5],19.01 fold
same,"Fold change, MOV58_01130 helix turn helix transcriptional regulator",[1]; [5],18.5 fold
same,"Fold change, MOV58_02040 aldehyde dehydrogenase family protein",[1]; [5],-4.94 fold
same,"Fold change, MOV58_05440 hypothetical protein",[1]; [5],-5.09 fold
same,"Fold change, MOV58_05705 hypothetical protein",[1]; [5],-4.08 fold
same,"Fold change, MOV58_05710 hypothetical protein",[1]; [5],-6.86 fold
same,"Fold change, MOV58_05715 fructose-bisphosphatase class III",[1]; [5],-6.94 fold
same,"Fold change, MOV58_05720 hypothetical protein",[1]; [5],-5.64 fold
same,"Fold change, MOV58_05820 hypothetical protein",[1]; [5],-9.59 fold
same,"Fold change, MOV58_06035 universal stress protein",[1]; [5],-4.69 fold
same,"Fold change, MOV58_06695 RNA polymerase sigma factor RpoD",[1]; [5],-10.14 fold
same,"Fold change, MOV58_07655 hypothetical protein",[1]; [5],4.07 fold
same,"Fold change, MOV58_07775 hypothetical protein",[1]; [5],-4.58 fold
same,"Fold change, MOV58_07810 MerR family transcriptional regulator",[1]; [5],-4.32 fold
same,"Fold change, MOV58_08480 beta class phenol soluble modulin",[1]; [5],-11.36 fold
same,"Fold change, MOV58_08485 beta class phenol soluble modulin",[1]; [5],-11.33 fold
same,"Fold change, MOV58_08490 beta class phenol soluble modulin",[1]; [5],-9.37 fold
same,"Fold change, MOV58_08495 beta class phenol soluble modulin",[1]; [5],-8.82 fold
same,"Fold change, MOV58_09035 hypothetical protein",[1]; [5],-4.5 fold
same,"Fold change, MOV58_09040 IDEAL domain containing protein",[1]; [5],-6.02 fold
same,"Fold change, MOV58_09615 Hypothetical protein",[1]; [5],-4.82 fold
same,"Fold change, MOV58_09645 hypothetical protein",[1]; [5],-5.25 fold
same,"Fold change, MOV58_09650 hypothetical protein",[1]; [5],-5.02 fold
same,"Fold change, MOV58_09655 hypothetical protein",[1]; [5],-4.73 fold
same,"Fold change, MOV58_09715 phosphoglycerate kinase",[1]; [5],-6.94 fold
same,"Fold change, MOV58_09720 type I glyceraldehyde-3-phosphate dehydrogenase",[1]; [5],-4.93 fold
same,"Fold change, MOV58_09725 CggR, central glycolytic genes regulator",[1]; [5],-7.22 fold
same,"Fold change, MOV58_09730 hypothetical",[1]; [5],-5.22 fold
same,"Fold change, MOV58_10080 fructose-specific PTS transporter subunit EIIC",[1]; [5],-4.31 fold
same,"Fold change, MOV58_10085 1-phosphofruktokinase",[1]; [5],-22.43 fold
same,"Fold change, MOV58_10090 DeoR/GlpR family DNA-binding transcription regulator",[1]; [5],-27.93 fold
same,"Fold change, MOV58_10435 alpha/beta hydrolase",[1]; [5],-6.85 fold
same,"Fold change, MOV58_10445 Hypothetical protein",[1]; [5],-10.93 fold
same,"Fold change, MOV58_10515 flavodoxin family protein",[1]; [5],-5.24 fold
same,"Fold change, MOV58_10990 Hypothetical protein",[1]; [5],-4.65 fold
same,"Fold change, MOV58_11890 LytTR family DNA binding domain containing protein",[1]; [5],-7.12 fold
same,"Fold change, MOV58_11895 DUF3021 domain-containing protein",[1]; [5],-5.21 fold
same,"RNAIII expression, down -fold",[1]; [6],3.40 fold
same,"agrB expression, down -fold",[1]; [6],2.89 fold
same,"agrD expression, down -fold",[1]; [6],3.08 fold
same,PSM-β1 presence in S. hominis cultures,[2],"present only in S. hominis cultures treated with DMSO, not in those treated with apicidin"
same,S. hominis agr-I P3::sGFP growth (OD600),S. hominis agr-I; [7],no effect on growth
same,S. hominis agr-I signaling (P3::sGFP fluorescence),S. hominis agr-I; [7],inhibited S. hominis agr-I signaling
